Reference: patent US12544391B2, “CD73 inhibitors” (ORIC Pharmaceuticals, Inc., priority 2019, dated 2026)
pIC50: −log10 of the molar value.

Target: T1, CD73 (Homo sapiens, UniProt P21589)
T1 sequence (P21589 27-549): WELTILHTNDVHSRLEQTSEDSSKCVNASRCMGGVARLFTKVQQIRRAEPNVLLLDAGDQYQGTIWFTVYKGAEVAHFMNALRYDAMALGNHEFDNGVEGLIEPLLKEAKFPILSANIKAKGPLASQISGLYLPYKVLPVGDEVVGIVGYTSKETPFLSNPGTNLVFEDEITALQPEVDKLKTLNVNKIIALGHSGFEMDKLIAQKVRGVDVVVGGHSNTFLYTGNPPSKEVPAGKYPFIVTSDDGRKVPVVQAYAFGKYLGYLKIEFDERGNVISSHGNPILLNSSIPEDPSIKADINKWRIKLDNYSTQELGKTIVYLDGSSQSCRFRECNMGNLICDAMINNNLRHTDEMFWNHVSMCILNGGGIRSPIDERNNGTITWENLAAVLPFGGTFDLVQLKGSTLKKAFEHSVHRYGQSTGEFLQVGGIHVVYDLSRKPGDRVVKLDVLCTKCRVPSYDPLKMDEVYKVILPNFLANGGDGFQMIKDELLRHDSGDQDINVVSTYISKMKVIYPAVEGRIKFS
Assay: CD73 biochemical assay, Malachite Green detection of AMP hydrolysis
Details: CD73 320 pM, AMP 15 μM, Malachite Green readout
Description: Assay Reaction Conditions
• Assay Volume: 70 μl • Reaction Volume: 50 μl • CD73: 0.3208 nM • AMP: 15 μM • Assay Buffer: 2 5 mM Tris-HCL, pH 7.4, 0.01% Brij-35, 0.01% BSA, 5 mM MgCl2 Assay Procedure:
A clear 384 well plate was used in this assay.
Made dose titration of testing compounds in assay buffer, 10 points ½ log titrations in duplicates starting at 100 μM. Total volume for each well was 25 μl, with CD73 then added to each well for a final concentration of 320 pM. The solution was then incubated at RT for 15 min. 25 μl of AMP was added to each well for a final concentration of 15 μM, and then incubated at rt for 10 min. 10 μl of Malachite Green Reagent A was then added and allowed to incubate at rt for 10 min. 10 μl of Malachite Green Reagent B was then added and allowed to incubate at rt for 45 min. The absorbance for each sample was read on an Envision plate reader using excitation filter: Cy5 […].
The ability of the compounds disclosed herein to inhibit CD73 activity was quantified and the respective IC50 values were determined. Table 2 provides the biochemical IC50 values of compounds disclosed herein.

| SMILES | pIC50 |
| --- | --- |
| O=c1[nH]c(COC[C@@](CO)(OC[C@H]2O[C@@H](c3ccc4c(NCC5CC5)nc(Cl)nn34)[C@H](O)[C@@H]2O)P(=O)(O)O)no1 [Example 44, ((S)-2-(((2R,3S,4R,5S)-5-(2-chloro-4-((cyclopropylmethyl)amino)pyrrolo[2,1-f][1,2,4]triazin-7-yl)-3,4-dihydroxytetrahydrofuran-2-yl)methoxy)-1-hydroxy-3-((5-oxo-4,5-dihydro-1,2,4-oxadiazol-3-yl)methoxy)propan-2-yl)phosphonic acid] | ≥ 9.30 |
| COC[C@](CC(=O)O)(OC[C@H]1O[C@@H](c2ccc3c(NC4CCCC4)nc(Cl)nn23)[C@H](O)[C@@H]1O)P(=O)(O)O [Example 45, (R)-3-(((2R,3S,4R,5S)-5-(2-Chloro-4-(Cyclopentylamino)pyrrolo[2,1-f][1,2,4]triazin-7-yl)-3,4-dihydroxytetrahydrofuran-2-yl)methoxy)-4-methoxy-3-phosphonobutanoic acid] | ≥ 9.30 |
| O=P(O)(O)[C@@](CO)(COCc1nn[nH]n1)OC[C@H]1O[C@@H](c2ccc3c(NCC4CCCC4)nc(Cl)nn23)[C@H](O)[C@@H]1O [Example 46, ((S)-1-((2H-tetrazol-5-yl)methoxy)-2-(((2R,3S,4R,5S)-5-(2-chloro-4-((cyclopentylmethyl)amino)pyrrolo[2,1-f][1,2,4]triazin-7-yl)-3,4-dihydroxytetrahydrofuran-2-yl)methoxy)-3-hydroxypropan-2-yl)phosphonic acid] | ≥ 9.30 |
| COC[C@](OC[C@H]1O[C@@H](c2ccc3c(NC4CCCC4)nc(Cl)nn23)[C@H](O)[C@@H]1O)(C(=O)O)P(=O)(O)O [Example 47, (R)-2-(((2R,3S,4R,5S)-5-(2-chloro-4-(cyclopentylamino)pyrrolo[2,1-f][1,2,4]triazin-7-yl)-3,4-dihydroxytetrahydrofuran-2-yl)methoxy)-3-methoxy-2-phosphonopropanoic acid] | 7.00 to 9.00 |

Further lines, results first:

| pIC50 | SMILES |
| --- | --- |
| 7.00 to 9.00 | O=P(O)(O)[C@](CO)(COCc1nn[nH]n1)OC[C@H]1O[C@@H](c2ccc3c(NCC4CCCC4)nc(Cl)nn23)[C@H](O)[C@@H]1O [Example 48, ((R)-1-((2H-tetrazol-5-yl)methoxy)-2-(((2R,3S,4R,5S)-5-(2-chloro-4-((cyclopentylmethyl)amino)pyrrolo[2,1-f][1,2,4]triazin-7-yl)-3,4-dihydroxytetrahydrofuran-2-yl)methoxy)-3-hydroxypropan-2-yl)phosphonic acid] |
| ≥ 9.30 | O=P(O)(O)[C@@](CO)(COCc1nn[nH]n1)OC[C@H]1O[C@@H](c2ccc3c(NCC4CC4)nc(Cl)nn23)[C@H](O)[C@@H]1O [Example 49, ((S)-1-((2H-tetrazol-5-yl)methoxy)-2-(((2R,3S,4R,5S)-5-(2-chloro-4-((cyclopropylmethyl)amino)pyrrolo[2,1-f][1,2,4]triazin-7-yl)-3,4-dihydroxytetrahydrofuran-2-yl)methoxy)-3-hydroxypropan-2-yl)phosphonic acid] |
| 9.00 to 9.30 | O=P(O)(O)[C@](CO)(COCc1nn[nH]n1)OC[C@H]1O[C@@H](c2ccc3c(NC4CCC4)nc(Cl)nn23)[C@H](O)[C@@H]1O [Example 50, ((R)-1-((2H-tetrazol-5-yl)methoxy)-2-(((2R,3S,4R,5S)-5-(2-chloro-4-(cyclobutylamino)pyrrolo[2,1-f][1,2,4]triazin-7-yl)-3,4-dihydroxytetrahydrofuran-2-yl)methoxy)-3-hydroxypropan-2-yl)phosphonic acid] |
| ≥ 9.30 | O=P(O)(O)[C@@](CO)(COCc1nn[nH]n1)OC[C@H]1O[C@@H](c2ccc3c(NCC4CCC4)nc(Cl)nn23)[C@H](O)[C@@H]1O [Example 52, ((S)-1-((2H-tetrazol-5-yl)methoxy)-2-(((2R,3S,4R,5S)-5-(2-chloro-4-((cyclobutylmethyl)amino)pyrrolo[2,1-f][1,2,4]triazin-7-yl)-3,4-dihydroxytetrahydrofuran-2-yl)methoxy)-3-hydroxypropan-2-yl)phosphonic acid] |
